According to PubChem BioAssay AID2060487 (Molecular Pharmacology Branch, DTP, NCI, 2025):

System: 997537-175-T-J1-PDC complex spheroid viability
Test: Anticancer human tumor 997537-175-T-J1-PDC patient-derived colon adenocarcinoma cell line growth inhibition [GQUAD]
Conditions: for IC50: curve of first compound; for viability, T/C: stronger effect = lower value; active means viability on the fitted dose curve at most 10% of control; inactive means the rest
In short: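 Tumor cells were grown as complex spheroids with HUVEC endothelial cells and mesenchymal stem cells as stroma. G-quadruplex stabilizers were combined with targeted agents over half-log dilutions from near the clinical Cmax, or from 10 microM.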

[1] = second compound 0.0316 µM, first compound 0.0316 µM
[2] = second compound 0.0316 µM, first compound 0.1 µM
[3] = second compound 0.0316 µM, first compound 0.316 µM
[4] = second compound 0.0316 µM, first compound 1 µM
[5] = second compound 0.0316 µM, first compound 3.16 µM
[6] = second compound 0.0316 µM, first compound 10 µM
[7] = second compound 0.1 µM, first compound 0.0316 µM
[8] = second compound 0.1 µM, first compound 0.1 µM
[9] = second compound 0.1 µM, first compound 0.316 µM
[10] = second compound 0.1 µM, first compound 1 µM
[11] = second compound 0.1 µM, first compound 3.16 µM
[12] = second compound 0.1 µM, first compound 10 µM
[13] = second compound 0.316 µM, first compound 0.0316 µM
[14] = second compound 0.316 µM, first compound 0.1 µM
[15] = second compound 0.316 µM, first compound 0.316 µM
[16] = second compound 0.316 µM, first compound 1 µM
[17] = second compound 0.316 µM, first compound 3.16 µM
[18] = second compound 0.316 µM, first compound 10 µM
[19] = second compound 1 µM, first compound 0.0316 µM
[20] = second compound 1 µM, first compound 0.1 µM
[21] = second compound 1 µM, first compound 0.316 µM
[22] = second compound 1 µM, first compound 1 µM
[23] = second compound 1 µM, first compound 3.16 µM
[24] = second compound 1 µM, first compound 10 µM
[25] = second compound 3.16 µM, first compound 0.0316 µM
[26] = second compound 3.16 µM, first compound 0.1 µM
[27] = second compound 3.16 µM, first compound 0.316 µM
[28] = second compound 3.16 µM, first compound 1 µM
[29] = second compound 3.16 µM, first compound 3.16 µM
[30] = second compound 3.16 µM, first compound 10 µM
[31] = second compound 10 µM, first compound 0.0316 µM
[32] = second compound 10 µM, first compound 0.1 µM
[33] = second compound 10 µM, first compound 0.316 µM
[34] = second compound 10 µM, first compound 1 µM
[35] = second compound 10 µM, first compound 3.16 µM
[36] = second compound 10 µM, first compound 10 µM
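Further: spheroids exposed to the agents for 7 days.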
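Wherever viability, T/C is given: 100% = DMSO vehicle control viability.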

C#Cc1c(F)ccc2cc(O)cc(-c3ncc4c(N5CC6CCC(C5)N6)nc(OCC56CCCN5CC(F)C6)nc4c3F)c12 (stereo unspecified) + Cc1cnc(CNC(=O)c2c(=O)c3ccc(N4CCCN(C)CC4)nc3n3c2sc2ccccc23)cn1
> 10000 nM: IC50 (second compound 0.0316 µM) | IC50 (second compound 0.1 µM) | IC50 (second compound 0.316 µM) | IC50 (second compound 1 µM) | IC50 (second compound 3.16 µM) | IC50 (second compound 10 µM)
inactive: viability, T/C [1] 102% | viability, T/C [2] 85.6% | viability, T/C [3] 101% | viability, T/C [4] 74.9% | viability, T/C [5] 75.7% | viability, T/C [6] 111% | viability, T/C [7] 92.2% | viability, T/C [8] 90.2% | viability, T/C [9] 101% | viability, T/C [10] 80.8% | viability, T/C [11] 104% | viability, T/C [12] 109% | viability, T/C [13] 83.4% | viability, T/C [14] 83.6% | viability, T/C [15] 92.1% | viability, T/C [16] 97.3% | viability, T/C [17] 79.9% | viability, T/C [18] 108% | viability, T/C [19] 72.3% | viability, T/C [20] 101% | viability, T/C [21] 85% | viability, T/C [22] 98% | viability, T/C [23] 105% | viability, T/C [24] 113% | viability, T/C [25] 91.2% | viability, T/C [26] 108% | viability, T/C [27] 95.2% | viability, T/C [28] 99.1% | viability, T/C [29] 96.3% | viability, T/C [30] 106% | viability, T/C [31] 77% | viability, T/C [32] 100% | viability, T/C [33] 93.1% | viability, T/C [34] 97.9% | viability, T/C [35] 127% | viability, T/C [36] 110%

CC(=O)O[C@H]1C(=O)[C@@]2(C)[C@H]([C@H](OC(=O)c3ccccc3)[C@]3(O)C[C@H](OC(=O)[C@H](O)[C@@H](NC(=O)c4ccccc4)c4ccccc4)C(C)=C1C3(C)C)[C@]1(OC(C)=O)CO[C@@H]1C[C@@H]2O + Cc1cnc(CNC(=O)c2c(=O)c3ccc(N4CCCN(C)CC4)nc3n3c2sc2ccccc23)cn1
inactive: viability, T/C [1] 63.1% | viability, T/C [2] 32.2% | viability, T/C [3] 25.2% | viability, T/C [4] 32.1% | viability, T/C [5] 26.9% | viability, T/C [6] 21.2% | viability, T/C [7] 79.2% | viability, T/C [8] 48.2% | viability, T/C [9] 33.7% | viability, T/C [10] 18.4% | viability, T/C [11] 21.3% | viability, T/C [12] 32.4% | viability, T/C [13] 72.4% | viability, T/C [14] 56.4% | viability, T/C [15] 40.7% | viability, T/C [16] 47.4% | viability, T/C [17] 35% | viability, T/C [18] 43.5% | viability, T/C [19] 63% | viability, T/C [20] 72.2% | viability, T/C [21] 43.9% | viability, T/C [22] 60.5% | viability, T/C [23] 73.5% | viability, T/C [24] 47.7% | viability, T/C [25] 68.7% | viability, T/C [26] 72.8% | viability, T/C [27] 62.6% | viability, T/C [28] 66% | viability, T/C [29] 50.9% | viability, T/C [30] 45.2% | viability, T/C [31] 62.4% | viability, T/C [32] 49.4% | viability, T/C [33] 60% | viability, T/C [34] 69.7% | viability, T/C [35] 57% | viability, T/C [36] 60.2%
> 10000 nM: IC50 (second compound 1 µM) | IC50 (second compound 10 µM)
5210 nM: IC50 (second compound 3.16 µM)
51.4 nM: IC50 (second compound 0.0316 µM)
165 nM: IC50 (second compound 0.316 µM)
95.7 nM: IC50 (second compound 0.1 µM)

CC[C@@]1(O)C(=O)OCc2c1cc1n(c2=O)Cc2cc3c(CN(C)C)c(O)ccc3nc2-1 + Cc1cnc(CNC(=O)c2c(=O)c3ccc(N4CCCN(C)CC4)nc3n3c2sc2ccccc23)cn1
> 316 nM: IC50 (second compound 0.0316 µM) | IC50 (second compound 0.1 µM) | IC50 (second compound 0.316 µM) | IC50 (second compound 1 µM) | IC50 (second compound 3.16 µM) | IC50 (second compound 10 µM)
inactive: viability, T/C (second compound 0.0316 µM, first compound 0.000999 µM) 108% | viability, T/C (second compound 0.0316 µM, first compound 0.00316 µM) 104% | viability, T/C (second compound 0.0316 µM, first compound 0.00999 µM) 97.8% | viability, T/C [1] 82% | viability, T/C (second compound 0.0316 µM, first compound 0.0999 µM) 72.3% | viability, T/C [3] 80.4% | viability, T/C (second compound 0.1 µM, first compound 0.000999 µM) 97.8% | viability, T/C (second compound 0.1 µM, first compound 0.00316 µM) 97.5% | viability, T/C (second compound 0.1 µM, first compound 0.00999 µM) 92.7% | viability, T/C [7] 90.1% | viability, T/C (second compound 0.1 µM, first compound 0.0999 µM) 97.5% | viability, T/C [9] 58% | viability, T/C (second compound 0.316 µM, first compound 0.000999 µM) 92.8% | viability, T/C (second compound 0.316 µM, first compound 0.00316 µM) 88.8% | viability, T/C (second compound 0.316 µM, first compound 0.00999 µM) 105% | viability, T/C [13] 85% | viability, T/C (second compound 0.316 µM, first compound 0.0999 µM) 98.8% | viability, T/C [15] 66.3% | viability, T/C (second compound 1 µM, first compound 0.000999 µM) 89.8% | viability, T/C (second compound 1 µM, first compound 0.00316 µM) 93.5% | viability, T/C (second compound 1 µM, first compound 0.00999 µM) 101% | viability, T/C [19] 93.5% | viability, T/C (second compound 1 µM, first compound 0.0999 µM) 108% | viability, T/C [21] 59% | viability, T/C (second compound 3.16 µM, first compound 0.000999 µM) 75% | viability, T/C (second compound 3.16 µM, first compound 0.00316 µM) 104% | viability, T/C (second compound 3.16 µM, first compound 0.00999 µM) 118% | viability, T/C [25] 89.7% | viability, T/C (second compound 3.16 µM, first compound 0.0999 µM) 96.1% | viability, T/C [27] 58.8% | viability, T/C (second compound 10 µM, first compound 0.000999 µM) 97.7% | viability, T/C (second compound 10 µM, first compound 0.00316 µM) 108% | viability, T/C (second compound 10 µM, first compound 0.00999 µM) 130% | viability, T/C [31] 69% | viability, T/C (second compound 10 µM, first compound 0.0999 µM) 94.5% | viability, T/C [33] 70.2%
